According to patent publication US10874631B2, “Altertoxin II as a selective inhibitor of Ewing family of tumor cells” (priority 2016, dated 2020):

Test system: Ewing sarcoma cells
Test: Panel of 5 pediatric cancer cell lines, selective cytotoxicity
Format: cell-based
Details: 5 types of solid pediatric cancers

O=C1C[C@H](O)[C@@H]2c3c(ccc(O)c31)-c1ccc(O)c3c1[C@@]2(O)CCC3=O [Altertoxin I, altertoxin I]
selective cytotoxic activity against Ewing sarcoma cells: did not show selective cytotoxic activity
